In article PMC11420776 (RSC Advances, 2024):

Columns and labels:
CCRF-CEM (leukemia) = assay: NCI 60-cell one-dose antiproliferative screen; type: cell-based, human; details: one dose 10 μM
RPMI-8226 (leukemia) = assay: NCI 60-cell one-dose antiproliferative screen; type: cell-based, human; details: one dose 10 μM
[1] = test system: A549/ATCC (NSC lung cancer); assay: NCI 60-cell one-dose antiproliferative screen; type: cell-based, human; details: one dose 10 μM
EKVX (NSC lung cancer) = assay: NCI 60-cell one-dose antiproliferative screen; type: cell-based, human; details: one dose 10 μM
HOP-62 (NSC lung cancer) = assay: NCI 60-cell one-dose antiproliferative screen; type: cell-based, human; details: one dose 10 μM
HOP-92 (NSC lung cancer) = assay: NCI 60-cell one-dose antiproliferative screen; type: cell-based, human; details: one dose 10 μM
[2] = test system: NCI-H226 (NSC lung cancer); assay: NCI 60-cell one-dose antiproliferative screen; type: cell-based, human; details: one dose 10 μM
[3] = test system: NCI-H23 (NSC lung cancer); assay: NCI 60-cell one-dose antiproliferative screen; type: cell-based, human; details: one dose 10 μM
[4] = test system: NCI-H322M (NSC lung cancer); assay: NCI 60-cell one-dose antiproliferative screen; type: cell-based, human; details: one dose 10 μM
[5] = test system: NCI-H460 (NSC lung cancer); assay: NCI 60-cell one-dose antiproliferative screen; type: cell-based, human; details: one dose 10 μM
[6] = test system: NCI-H522 (NSC lung cancer); assay: NCI 60-cell one-dose antiproliferative screen; type: cell-based, human; details: one dose 10 μM
COLO-205 (colon cancer) = assay: NCI 60-cell one-dose antiproliferative screen; type: cell-based, human; details: one dose 10 μM
HCC-2998 (colon cancer) = assay: NCI 60-cell one-dose antiproliferative screen; type: cell-based, human; details: one dose 10 μM
HCT-116 (colon cancer) = assay: NCI 60-cell one-dose antiproliferative screen; type: cell-based, human; details: one dose 10 μM
HCT-15 (colon cancer) = assay: NCI 60-cell one-dose antiproliferative screen; type: cell-based, human; details: one dose 10 μM
HT29 (colon cancer) = assay: NCI 60-cell one-dose antiproliferative screen; type: cell-based, human; details: one dose 10 μM
KM12 (colon cancer) = assay: NCI 60-cell one-dose antiproliferative screen; type: cell-based, human; details: one dose 10 μM
SW-620 (colon cancer) = assay: NCI 60-cell one-dose antiproliferative screen; type: cell-based, human; details: one dose 10 μM
SF-268 (CNS cancer) = assay: NCI 60-cell one-dose antiproliferative screen; type: cell-based, human; details: one dose 10 μM
SF-295 (CNS cancer) = assay: NCI 60-cell one-dose antiproliferative screen; type: cell-based, human; details: one dose 10 μM
SF-539 (CNS cancer) = assay: NCI 60-cell one-dose antiproliferative screen; type: cell-based, human; details: one dose 10 μM
SNB-19 (CNS cancer) = assay: NCI 60-cell one-dose antiproliferative screen; type: cell-based, human; details: one dose 10 μM
SNB-75 (CNS cancer) = assay: NCI 60-cell one-dose antiproliferative screen; type: cell-based, human; details: one dose 10 μM
U251 (CNS cancer) = assay: NCI 60-cell one-dose antiproliferative screen; type: cell-based, human; details: one dose 10 μM
LOX IMIV (melanoma) = assay: NCI 60-cell one-dose antiproliferative screen; type: cell-based, human; details: one dose 10 μM
MALME-3M (melanoma) = assay: NCI 60-cell one-dose antiproliferative screen; type: cell-based, human; details: one dose 10 μM
M14 (melanoma) = assay: NCI 60-cell one-dose antiproliferative screen; type: cell-based, human; details: one dose 10 μM
MDA-MB-435 (melanoma) = assay: NCI 60-cell one-dose antiproliferative screen; type: cell-based, human; details: one dose 10 μM
SK-MEL-2 (melanoma) = assay: NCI 60-cell one-dose antiproliferative screen; type: cell-based, human; details: one dose 10 μM
SK-MEL-28 (melanoma) = assay: NCI 60-cell one-dose antiproliferative screen; type: cell-based, human; details: one dose 10 μM
UACC-257 (melanoma) = assay: NCI 60-cell one-dose antiproliferative screen; type: cell-based, human; details: one dose 10 μM
UACC-62 (melanoma) = assay: NCI 60-cell one-dose antiproliferative screen; type: cell-based, human; details: one dose 10 μM
IGROV1 (ovarian cancer) = assay: NCI 60-cell one-dose antiproliferative screen; type: cell-based, human; details: one dose 10 μM
OVCAR-3 (ovarian cancer) = assay: NCI 60-cell one-dose antiproliferative screen; type: cell-based, human; details: one dose 10 μM
OVCAR-4 (ovarian cancer) = assay: NCI 60-cell one-dose antiproliferative screen; type: cell-based, human; details: one dose 10 μM
OVCAR-5 (ovarian cancer) = assay: NCI 60-cell one-dose antiproliferative screen; type: cell-based, human; details: one dose 10 μM
OVCAR-8 (ovarian cancer) = assay: NCI 60-cell one-dose antiproliferative screen; type: cell-based, human; details: one dose 10 μM
[7] = test system: NCI/ADR-RES (ovarian cancer); assay: NCI 60-cell one-dose antiproliferative screen; type: cell-based, human; details: one dose 10 μM
SK-OV-3 (ovarian cancer) = assay: NCI 60-cell one-dose antiproliferative screen; type: cell-based, human; details: one dose 10 μM
786-0 (renal cancer) = assay: NCI 60-cell one-dose antiproliferative screen; type: cell-based, human; details: one dose 10 μM
A498 (renal cancer) = assay: NCI 60-cell one-dose antiproliferative screen; type: cell-based, human; details: one dose 10 μM
ACHN (renal cancer) = assay: NCI 60-cell one-dose antiproliferative screen; type: cell-based, human; details: one dose 10 μM
CAKI-1 (renal cancer) = assay: NCI 60-cell one-dose antiproliferative screen; type: cell-based, human; details: one dose 10 μM
RXF 393 (renal cancer) = assay: NCI 60-cell one-dose antiproliferative screen; type: cell-based, human; details: one dose 10 μM
SN12C (renal cancer) = assay: NCI 60-cell one-dose antiproliferative screen; type: cell-based, human; details: one dose 10 μM
TK-10 (renal cancer) = assay: NCI 60-cell one-dose antiproliferative screen; type: cell-based, human; details: one dose 10 μM
UO-31 (renal cancer) = assay: NCI 60-cell one-dose antiproliferative screen; type: cell-based, human; details: one dose 10 μM
PC-3 (prostate cancer) = assay: NCI 60-cell one-dose antiproliferative screen; type: cell-based, human; details: one dose 10 μM
DU-145 (prostate cancer) = assay: NCI 60-cell one-dose antiproliferative screen; type: cell-based, human; details: one dose 10 μM
MCF7 (breast cancer) = assay: NCI 60-cell one-dose antiproliferative screen; type: cell-based, human; details: one dose 10 μM
[8] = test system: MDA-MB-231/ATCC (breast cancer); assay: NCI 60-cell one-dose antiproliferative screen; type: cell-based, human; details: one dose 10 μM
HS 578T (breast cancer) = assay: NCI 60-cell one-dose antiproliferative screen; type: cell-based, human; details: one dose 10 μM
T-47D (breast cancer) = assay: NCI 60-cell one-dose antiproliferative screen; type: cell-based, human; details: one dose 10 μM
[9] = test system: MDA-MB-468 (breast cancer); assay: NCI 60-cell one-dose antiproliferative screen; type: cell-based, human; details: one dose 10 μM
[10] = test system: 60 human tumor cell lines; assay: NCI 60-cell one-dose antiproliferative screen, whole panel; type: cell-based; details: Homo sapiens, 60 cell, read-out: Mean inhibition (mean GI%)

O=[N+]([O-])c1ccc(C=NNc2ccc3nnc(-c4ccccc4)n3n2)cc1 [Compound 4b, 6-(2-(4-Nitrobenzylidene)hydrazinyl)-3-phenyl-[1,2,4]triazolo[4,3-b]pyridazine]
GI% (CCRF-CEM (leukemia)): — (— GI% is below 15%)
GI% (RPMI-8226 (leukemia)): — (— GI% is below 15%)
GI% [1]: — (— GI% is below 15%)
GI% (EKVX (NSC lung cancer)): — (— GI% is below 15%)
GI% (HOP-62 (NSC lung cancer)): — (— GI% is below 15%)
GI% (HOP-92 (NSC lung cancer)): — (— GI% is below 15%)
GI% [2]: — (— GI% is below 15%)
GI% [3]: — (— GI% is below 15%)
GI% [4]: — (— GI% is below 15%)
GI% [5]: — (— GI% is below 15%)
GI% [6]: — (— GI% is below 15%)
GI% (COLO-205 (colon cancer)): — (— GI% is below 15%)
GI% (HCC-2998 (colon cancer)): — (— GI% is below 15%)
GI% (HCT-116 (colon cancer)): — (— GI% is below 15%)
GI% (HCT-15 (colon cancer)): — (— GI% is below 15%)
GI% (HT29 (colon cancer)): — (— GI% is below 15%)
GI% (KM12 (colon cancer)): — (— GI% is below 15%)
GI% (SW-620 (colon cancer)): — (— GI% is below 15%)
GI% (SF-268 (CNS cancer)): — (— GI% is below 15%)
GI% (SF-295 (CNS cancer)): — (— GI% is below 15%)
GI% (SF-539 (CNS cancer)): — (— GI% is below 15%)
GI% (SNB-19 (CNS cancer)): — (— GI% is below 15%)
GI% (SNB-75 (CNS cancer)): — (— GI% is below 15%)
GI% (U251 (CNS cancer)): — (— GI% is below 15%)
GI% (LOX IMIV (melanoma)): — (— GI% is below 15%)
GI% (MALME-3M (melanoma)): — (— GI% is below 15%)
GI% (M14 (melanoma)): — (— GI% is below 15%)
GI% (MDA-MB-435 (melanoma)): — (— GI% is below 15%)
GI% (SK-MEL-2 (melanoma)): — (— GI% is below 15%)
GI% (SK-MEL-28 (melanoma)): — (— GI% is below 15%)
GI% (UACC-257 (melanoma)): — (— GI% is below 15%)
GI% (UACC-62 (melanoma)): — (— GI% is below 15%)
GI% (IGROV1 (ovarian cancer)): — (— GI% is below 15%)
GI% (OVCAR-3 (ovarian cancer)): — (— GI% is below 15%)
GI% (OVCAR-4 (ovarian cancer)): — (— GI% is below 15%)
GI% (OVCAR-5 (ovarian cancer)): — (— GI% is below 15%)
GI% (OVCAR-8 (ovarian cancer)): — (— GI% is below 15%)
GI% [7]: — (— GI% is below 15%)
GI% (SK-OV-3 (ovarian cancer)): — (— GI% is below 15%)
GI% (786-0 (renal cancer)): — (— GI% is below 15%)
GI% (A498 (renal cancer)): — (— GI% is below 15%)
GI% (ACHN (renal cancer)): — (— GI% is below 15%)
GI% (CAKI-1 (renal cancer)): — (— GI% is below 15%)
GI% (RXF 393 (renal cancer)): — (— GI% is below 15%)
GI% (SN12C (renal cancer)): — (— GI% is below 15%)
GI% (TK-10 (renal cancer)): — (— GI% is below 15%)
GI% (UO-31 (renal cancer)): — (— GI% is below 15%)
GI% (PC-3 (prostate cancer)): — (— GI% is below 15%)
GI% (DU-145 (prostate cancer)): — (— GI% is below 15%)
GI% (MCF7 (breast cancer)): — (— GI% is below 15%)
GI% [8]: — (— GI% is below 15%)
GI% (HS 578T (breast cancer)): — (— GI% is below 15%)
GI% (T-47D (breast cancer)): — (— GI% is below 15%)
GI% [9]: — (— GI% is below 15%)
inhibition at 10 µM [10]: < 0%

COc1ccc(-c2nnc3ccc(NN=Cc4ccc(C)cc4)nn23)cc1 [Compound 4f, 3-(4-Methoxyphenyl)-6-(2-(4-methylbenzylidene)hydrazinyl)-[1,2,4]triazolo[4,3-b]pyridazine]
GI% (CCRF-CEM (leukemia)): — (— GI% is below 15%)
GI% (RPMI-8226 (leukemia)): — (— GI% is below 15%)
GI% [1]: 66.62%
GI% (EKVX (NSC lung cancer)): 31.76%
GI% (HOP-62 (NSC lung cancer)): 29.57%
GI% (HOP-92 (NSC lung cancer)): 81.11%
GI% [2]: 45.38%
GI% [3]: 49.25%
GI% [4]: — (— GI% is below 15%)
GI% [5]: 48.83%
GI% [6]: — (— GI% is below 15%)
GI% (COLO-205 (colon cancer)): 20.07%
GI% (HCC-2998 (colon cancer)): 20.85%
GI% (HCT-116 (colon cancer)): 21.17%
GI% (HCT-15 (colon cancer)): 50.02%
GI% (HT29 (colon cancer)): 17.40%
GI% (KM12 (colon cancer)): 31.89%
GI% (SW-620 (colon cancer)): — (— GI% is below 15%)
GI% (SF-268 (CNS cancer)): 40.91%
GI% (SF-295 (CNS cancer)): 43.09%
GI% (SF-539 (CNS cancer)): 38.74%
GI% (SNB-19 (CNS cancer)): — (— GI% is below 15%)
GI% (U251 (CNS cancer)): 55.13%
GI% (LOX IMIV (melanoma)): 76.27%
GI% (MALME-3M (melanoma)): — (— GI% is below 15%)
GI% (M14 (melanoma)): 16.52%
GI% (MDA-MB-435 (melanoma)): 35.32%
GI% (SK-MEL-2 (melanoma)): — (— GI% is below 15%)
GI% (SK-MEL-28 (melanoma)): — (— GI% is below 15%)
GI% (UACC-257 (melanoma)): — (— GI% is below 15%)
GI% (UACC-62 (melanoma)): — (— GI% is below 15%)
GI% (IGROV1 (ovarian cancer)): — (— GI% is below 15%)
GI% (OVCAR-3 (ovarian cancer)): 84.42%
GI% (OVCAR-4 (ovarian cancer)): 63.09%
GI% (OVCAR-5 (ovarian cancer)): — (— GI% is below 15%)
GI% (OVCAR-8 (ovarian cancer)): 58.61%
GI% [7]: 74.21%
GI% (SK-OV-3 (ovarian cancer)): 20.16%
GI% (786-0 (renal cancer)): 43.09%
GI% (A498 (renal cancer)): — (— GI% is below 15%)
GI% (ACHN (renal cancer)): 41.02%
GI% (CAKI-1 (renal cancer)): 45.37%
GI% (RXF 393 (renal cancer)): 37.84%
GI% (SN12C (renal cancer)): 23.07%
GI% (TK-10 (renal cancer)): 17.28%
GI% (UO-31 (renal cancer)): 66.50%
GI% (PC-3 (prostate cancer)): 27.83%
GI% (DU-145 (prostate cancer)): 60.93%
GI% (MCF7 (breast cancer)): 42.84%
GI% [8]: 34.65%
GI% (HS 578T (breast cancer)): 70.93%
GI% (T-47D (breast cancer)): 24.01%
GI% [9]: — (— GI% is below 15%)
inhibition at 10 µM [10]: 34.8%
